ChEMBL document CHEMBL1201862, “PubChem BioAssay data set” (2004)
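Cells were grown in 96-well plates and exposed to each compound for 48 hours at five concentrations; endpoints were interpolated linearly between bracketing concentrations, or set to the highest concentration if not reached. Here, GI50 denotes the concentration required for 50% inhibition of growth.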 Calls of active or inactive are those of the source. No stated cut-off is given here; in the data, active = GI50 up to about 1.1 µM and inactive = higher.

Columns and labels:
Assay in all cases: NCI anticancer screen, dose series, 48 h
ACHN = tested on: ACHN
CAKI-1 = tested on: CAKI-1
CCRF-CEM = tested on: CCRF-CEM
EKVX = tested on: EKVX
HCT-15 = tested on: HCT-15
HL-60 = tested on: HL-60
HOP-92 = tested on: HOP-92
HT-29 = tested on: HT-29
Malme-3M = tested on: Malme-3M
NCI-H23 = tested on: NCI-H23
NCI-H460 = tested on: NCI-H460
NCI/ADR-RES = tested on: NCI/ADR-RES
OVCAR-3 = tested on: OVCAR-3
SF-295 = tested on: SF-295
SF-539 = tested on: SF-539
SK-MEL-28 = tested on: SK-MEL-28
SK-MEL-5 = tested on: SK-MEL-5
SNB-19 = tested on: SNB-19
SR = tested on: SR
UO-31 = tested on: UO-31

## N=C(N)NS(=O)(=O)c1ccc(NNc2c3ccccc3nc3c(C(=O)Nc4ccc(S(=O)(=O)Nc5ncccn5)cc4)cccc23)cc1
ACHN
  GI50: 31 µM (inactive)
CAKI-1
  GI50: 37.8 µM (inactive)
CCRF-CEM
  GI50: 30.8 µM (inactive)
EKVX
  GI50: 31.8 µM (inactive)
HCT-15
  GI50: 34.1 µM
HL-60
  GI50: 38.2 µM (inactive)
HOP-92
  GI50: 67 µM (inactive)
HT-29
  GI50: 22.9 µM (inactive)
Malme-3M
  GI50: 22.1 µM (inactive)
NCI-H23
  GI50: 35.3 µM (inactive)
NCI-H460
  GI50: 45.3 µM (inactive)
NCI/ADR-RES
  GI50: > 100 µM (inactive)
OVCAR-3
  GI50: 38.4 µM (inactive)
SF-295
  GI50: 40.2 µM (inactive)
SF-539
  GI50: 35.4 µM (inactive)
SK-MEL-28
  GI50: 55.1 µM (inactive)
SK-MEL-5
  GI50: 26.6 µM (inactive)
SNB-19
  GI50: 50.1 µM (inactive)
SR
  GI50: > 10 µM (inactive)
UO-31
  GI50: 22.4 µM (inactive)

## COc1ccc(/C=C/C(=O)c2cc(C(C)(C)C)c(O)c(C(C)(C)C)c2)cc1OC
ACHN
  GI50: 14.6 µM (inactive)
CAKI-1
  GI50: 10.7 µM (inactive)
CCRF-CEM
  GI50: 2.83 µM (inactive)
EKVX
  GI50: 11.2 µM (inactive)
HCT-15
  GI50: 5.68 µM
HL-60
  GI50: 2.84 µM (inactive)
HOP-92
  GI50: 16.6 µM (inactive)
HT-29
  GI50: 4.18 µM (inactive)
Malme-3M
  GI50: 61.2 µM (inactive)
NCI-H23
  GI50: 12.1 µM (inactive)
NCI-H460
  GI50: 5.52 µM (inactive)
NCI/ADR-RES
  GI50: 4.85 µM (inactive)
OVCAR-3
  GI50: 4.97 µM (inactive)
SF-295
  GI50: 6.52 µM (inactive)
SF-539
  GI50: 12.7 µM (inactive)
SK-MEL-28
  GI50: 37.5 µM (inactive)
SK-MEL-5
  GI50: 6.75 µM (inactive)
SNB-19
  GI50: 24.8 µM (inactive)
SR
  GI50: 0.551 µM (active)
UO-31
  GI50: 5.16 µM (inactive)

## COc1cc(C2c3cc4c(cc3OC(N3CCOCC3)C2C)OCO4)ccc1O (stereo not given)
ACHN
  GI50: 21.2 µM (inactive)
CAKI-1
  GI50: 31.2 µM (inactive)
CCRF-CEM
  GI50: 8.67 µM (inactive)
EKVX
  GI50: 36.1 µM (inactive)
HCT-15
  GI50: 4.98 µM
HL-60
  GI50: 3.72 µM (inactive)
HOP-92
  GI50: 2.84 µM (inactive)
HT-29
  GI50: 23.4 µM (inactive)
Malme-3M
  GI50: 10.9 µM (inactive)
NCI-H23
  GI50: 28.6 µM (inactive)
NCI-H460
  GI50: 12 µM (inactive)
NCI/ADR-RES
  GI50: 5.96 µM (inactive)
OVCAR-3
  GI50: 7.62 µM (inactive)
SF-295
  GI50: 4.31 µM (inactive)
SF-539
  GI50: 11.3 µM (inactive)
SK-MEL-28
  GI50: 34.1 µM (inactive)
SK-MEL-5
  GI50: 9.53 µM (inactive)
SNB-19
  GI50: 24.4 µM (inactive)
SR
  GI50: 5.66 µM (inactive)
UO-31
  GI50: 16 µM (inactive)

## C#CC1(OC(C)=O)CCC2C3CC=C4C=C(OC(C)=O)CCC4(C)C3CCC21C (stereo not given)
ACHN
  GI50: 26.7 µM (inactive)
CAKI-1
  GI50: 36.5 µM (inactive)
CCRF-CEM
  GI50: 12.6 µM (inactive)
EKVX
  GI50: 30.5 µM (inactive)
HCT-15
  GI50: 23.3 µM
HL-60
  GI50: 28.6 µM (inactive)
HOP-92
  GI50: 16.1 µM (inactive)
HT-29
  GI50: 17.2 µM (inactive)
Malme-3M
  GI50: 18 µM (inactive)
NCI-H23
  GI50: 18.3 µM (inactive)
NCI-H460
  GI50: 27 µM (inactive)
NCI/ADR-RES
  GI50: 26.9 µM (inactive)
OVCAR-3
  GI50: 20 µM (inactive)
SF-295
  GI50: 25.2 µM (inactive)
SF-539
  GI50: 21.3 µM (inactive)
SK-MEL-28
  GI50: 25.9 µM (inactive)
SK-MEL-5
  GI50: 18.3 µM (inactive)
SNB-19
  GI50: 32.4 µM (inactive)
SR
  GI50: 16.3 µM (inactive)
UO-31
  GI50: 23.1 µM (inactive)

## CSC1(C(=O)O)C2CCC3C2CCC31 (stereo not given)
ACHN
  GI50: > 100 µM (inactive)
CAKI-1
  GI50: > 100 µM (inactive)
CCRF-CEM
  GI50: 52.6 µM (inactive)
EKVX
  GI50: > 100 µM (inactive)
HCT-15
  GI50: > 100 µM
HL-60
  GI50: 99.5 µM (inactive)
HOP-92
  GI50: > 100 µM (inactive)
HT-29
  GI50: > 100 µM (inactive)
Malme-3M
  GI50: > 100 µM (inactive)
NCI-H23
  GI50: > 100 µM (inactive)
NCI-H460
  GI50: 62.1 µM (inactive)
NCI/ADR-RES
  GI50: > 100 µM (inactive)
OVCAR-3
  GI50: > 100 µM (inactive)
SF-295
  GI50: > 100 µM (inactive)
SF-539
  GI50: > 100 µM (inactive)
SK-MEL-28
  GI50: > 100 µM (inactive)
SK-MEL-5
  GI50: > 100 µM (inactive)
SNB-19
  GI50: > 100 µM (inactive)
SR
  GI50: > 100 µM (inactive)
UO-31
  GI50: > 100 µM (inactive)

## Nc1nc(O)c2[nH]nnc2n1 [8-AZAGUANINE]
ACHN
  GI50: 16.3 µM (inactive)
CAKI-1
  GI50: 0.304 µM (active)
CCRF-CEM
  GI50: 0.242 µM (active)
EKVX
  GI50: 11.4 µM (inactive)
HCT-15
  GI50: 24 µM
HL-60
  GI50: 0.326 µM (active)
HOP-92
  GI50: 0.757 µM (active)
HT-29
  GI50: 26.1 µM (inactive)
Malme-3M
  GI50: 0.352 µM (active)
NCI-H23
  GI50: 25.1 µM (inactive)
NCI-H460
  GI50: 11.4 µM (inactive)
NCI/ADR-RES
  GI50: 1.93 µM (inactive)
OVCAR-3
  GI50: 16 µM (inactive)
SF-295
  GI50: 3.11 µM (inactive)
SF-539
  GI50: 0.361 µM (active)
SK-MEL-28
  GI50: 0.728 µM (active)
SK-MEL-5
  GI50: 0.748 µM (active)
SNB-19
  GI50: 42.7 µM (inactive)
SR
  GI50: 2.42 µM (inactive)
UO-31
  GI50: 0.366 µM (active)
